A short description of data set [1]: solubility (general statement). Format: physicochemical. As to conditions: with respect to pharmaceutical production.
Data set [2] in a line: solubility in saline at 25 mg/ml, room temperature. The class given is physicochemical.
In data set [3] the test system is PC13; human lung large cell carcinoma. Nature of the data set: MTT cytotoxicity, in vitro cell growth, PC13. Format: cell-based. To be noted: PC-13, 72 hr, read-out: IC50 (concentration showing 50% cytotoxity). The protocol: (§1) Effect of the compounds on in vitro cell growth of various tumor cell lines:
(§2) The assay of cytotoxicity is dependent on the cellular reduction of MTT [3'-(4,5-dimethylthiazol-2-yl)-2,5-diphenyltetrazolium bromide] by the mitochondrial dehydrogenase of viable cells to a blue formazan product which can be measured spectrophotometrically. Cell suspension, 100 μl, containing 10^4 tumor cells with or without test sample was incubated for 72 hr in 5% CO2 -95% air at 37° C. in 96 well microculture plates (Falcol 3072). The 10 μl of MTT (5 mg/ml) in saline was added to each culture well and incubated for 4 hr at 37° C. The formazan crystals were solubilized by the addition of 100 μl of 10% SDS/0.01N HCl to each well, and incubated for 24 hr at 37° C. The plates were then read at 570 nm on the plate reader. The percentage of cytotoxicity was calculated from the formula: [formula]
(§3) 2 '-Deoxy-2'-methylidene-5-fluorocytidine was dissolved in distilled water, and diluted in RPM1 1640 medium. Tumor cell lines were maintained in RPM1 1640 medium (Nissui Seiyaku Co., Ltd., Tokyo, Japan).
(§4) IC50 values gave the concentrations showing the 50% cytotoxity.

The subject of data set [4] is U937; human histiocytic leukemia. In words: MTT cytotoxicity, in vitro cell growth, U937. The class given is cell-based. As to conditions: U-937, 72 hr, read-out: IC50 (concentration showing 50% cytotoxity). The protocol:
as §1, §2, §3, §4

The test system of data set [5] is HL60; human promyelocytic leukemia. Nature of the data set: MTT cytotoxicity, in vitro cell growth, HL60. Format: cell-based. To be noted: HL-60, 72 hr, read-out: IC50 (concentration showing 50% cytotoxity). The protocol: as §1, §2, §3, §4
In data set [6] the test system is L1210/c; mouse leukemia. Nature of the data set: MTT cytotoxicity, in vitro cell growth, L1210/c. Format: cell-based. As to conditions: 72 hr, read-out: IC50 (concentration showing 50% cytotoxity). The protocol:
as §1, §2, §3, §4

Data set [7] deals with CCRF-CEM; human T cell leukemia. Nature of the data set: MTT cytotoxicity, in vitro cell growth, CCRF-CEM. Format: cell-based. To be noted: 72 hr, read-out: IC50 (concentration showing 50% cytotoxity). The protocol: as §1, §2, §3, §4
Data set [8] deals with MOLT4; human T cell leukemia. Nature of the data set: MTT cytotoxicity, in vitro cell growth, MOLT4. Format: cell-based. As to conditions: MOLT-4, 72 hr, read-out: IC50 (concentration showing 50% cytotoxity). The protocol:
as §1, §2, §3, §4

Data set [9] deals with B16; mouse melanoma. In words: MTT cytotoxicity, in vitro cell growth, B16. As to conditions: 72 hr, read-out: IC50 (concentration showing 50% cytotoxity). The class given is cell-based. The protocol: as §1, §2, §3, §4

The values below come from US5401726A, “2'methylidenepyrimidine nucleoside compounds, their use and method for production thereof” (Yoshitomi Pharaceutical Industries, Ltd., priority 1988, dated 1995).

Values after ≈ are worked out from the molar mass of the structure shown.

Turning to `C=C1[C@H](n2ccc(N)nc2=O)O[C@H](CO)[C@H]1O` [2'-deoxy-2'-methylidenecytidine, reference compound], the solubility result in data set [1] is recorded as “inferior in solubility”. Besides, in data set [2], the solubility in saline result was “not soluble”.

As to `C=C1[C@H](n2cc(F)c(N)nc2=O)O[C@H](CO)[C@H]1O` [Example 1, 2'-deoxy-2'-methylidene-5-fluorocytidine], the IC50 was determined as 1 µg/mL (≈ 3.89 µM) in data set [3]; 0.44 µg/mL (≈ 1.71 µM) in data set [4]; 0.04 µg/mL (≈ 0.156 µM) in [5]; 0.33 µg/mL (≈ 1.28 µM) in [6]; 0.14 µg/mL (≈ 0.544 µM) in [7]; 0.036 µg/mL (≈ 0.14 µM) in data set [8]. In data set [9], the IC50 was determined as 6.9 µg/mL (≈ 26.8 µM). Besides, the solubility in saline entry in [2] is “easily soluble”.
